Data published in patent publication US20150119352A1, “DINUCELOSIDE POLYPHOSPHATES FOR THE TREATMENT OF PAIN” (GlobalAcorn Ltd., priority 2012, published 2015).
Read-outs that look alike come from different tables or passages of the source.

Legend:
male Wistar rats = assay: Formalin test (nociceptive behaviour, spontaneous jerking of injected paw); assay type: in vivo, rat; conditions: for nociceptive behavior after control injection of compound alone: 100 μM (100 μL), no formalin; for IC50: Rattus norvegicus; for IC50 First phase (acute pain), calculated / IC50 Second phase (chronic pain), calculated: Table 1, assuming 40 g rat body weight; for First phase (acute pain) / First phase (acute pain) (μg/kg) / Second phase (chronic pain) / Second phase (chronic pain) (μg/kg): Table 2; for First phase (acute pain) Human (70 kg) nmol / Second phase (chronic pain) Human (70 kg) nmol: Table 2, estimated indicative dose for 70 kg human; for First phase (acute pain) Rat (40 g) nmol / Second phase (chronic pain) Rat (40 g) nmol: Table 2, per 40 g rat; for recalculated effective concentration (second phase): assuming 40 g rat body weight; for number of nocifensive events triggered by the injection of formalin: co-injection 100 μL with formalin
Procedure: FIG. 6. Effects of subcutaneous Ap4A analogues on pain responses induced by intraplantar (right hindpaw) formalin injection. Rats were subcutaneously injected with formalin solution alone (0.5%, 50 μL, control) or co-injected with the formalin solution and solutions with AppCH2ppA (1 μM-100 μM, 100 μL) or AppNHppA (0.1 μM-100 μM, 100 μL). Age-matched control animals were injected with saline. A. Time-course of the effects of subcutaneous AppCH2ppA (a) and AppNHppA (b) on the number of the spontaneous jerkings of the injected paw. B. Bar-graphs of the effects of AppCH2ppA (a, b) and AppNHppA (c, d) on the integral number of spontaneous jerkings. Measurements were made during the acute phase (0-6 min) and tonic phase (7-45 min) of the formalin response. C. Dose-response curves for AppCH2ppA (a) and AppNHppA (b) during tonic and acute phases.
The formalin test experiments were performed on 21-day old male Wistar rats, weighing 40±5 g according to the method described previously (Simonetti et al, 2006; Yegutkin et al, 2008). Briefly, animal was acclimated to an acrylic observation chamber for at least 1 h before the injection of formalin ([…] of 0.5% solution in 0.9% saline) into the dorsal surface of the right hindpaw. Age-matched control animals were injected with saline (100 μL). Immediately after the injection, each animal was returned to the observation chamber and its behavioural characteristics were recorded for 45 min. We noticed consistently observed type of response: spontaneous jerking of the injected paw. The number of jerks was measured for each […], using self-developed computer software.
The effects of AppNHppA and AppCH2ppA were examined on the behavioral reactions of rats in inflammatory pain models. Injection of diluted formalin into a rodent's hindpaw produces a biphasic nociceptive response consisting of immediate (acute phase) and tonic (inflammatory phase) components. The first phase of a formalin response (i.e. 0-5 min after injection) involves a direct effect of formalin on the pain receptors, while changes in animal behavior during the second tonic phase (i.e. 7-45 min after injection) are caused by hyperalgesia that develops due to the sensitization of nociceptive and spinal neurons via mechanisms that are triggered by repetitive stimulation during the first phase.

[1] = target: T1, rat homomeric P2X3 receptors (Rattus norvegicus, UniProt P49654); assay: Whole-cell patch clamp on HEK cells expressing rat homomeric P2X3 receptors; assay type: cell-based; conditions: for depression of P2X3 current: 1 μM; for nH of the activation dose-response curve: activation of P2X3 receptors
T1 construct: transfected with rat full-length P2X3 cDNA subcloned into pIRES2-EGFP; expressed in transfected cells; host or cells: HEK293T
T1 sequence (P49654 1-397): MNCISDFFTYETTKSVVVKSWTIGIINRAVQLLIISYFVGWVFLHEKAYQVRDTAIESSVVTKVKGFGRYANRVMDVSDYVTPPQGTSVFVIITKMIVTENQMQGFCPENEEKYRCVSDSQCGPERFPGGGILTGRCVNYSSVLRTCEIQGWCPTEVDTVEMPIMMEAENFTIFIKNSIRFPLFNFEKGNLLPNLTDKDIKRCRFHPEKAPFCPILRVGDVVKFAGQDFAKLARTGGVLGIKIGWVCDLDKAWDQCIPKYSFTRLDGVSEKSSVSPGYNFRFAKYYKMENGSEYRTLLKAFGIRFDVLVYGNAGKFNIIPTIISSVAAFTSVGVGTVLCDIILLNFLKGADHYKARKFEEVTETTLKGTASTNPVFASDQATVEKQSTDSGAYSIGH
Procedure: Rat trigeminal (TG), nodose (NG) or dorsal root ganglion (DRG) neurons in culture were prepared as described previously (Sokolova et al., 2001; Simonetti et al., 2006). Neurons were plated on poly-L-lysine (0.2 mg/mL)-coated Petri dishes and cultured for 1 to 2 days under an atmosphere containing 5% CO2. Cells were used within 2 days of plating when they lacked processes. HEK293T cells were prepared as reported previously (Fabbretti et al., 2004; Sokolova et al., 2004) and transfected with rat full-length P2X3 cDNA subcloned into pIRES2-EGFP (Clontech, Mountain View, Calif., USA).
Trigeminal, nodose, DRG neurons or HEK cells were recorded in the whole-cell configuration while being continuously superfused (at 2 mL/min) with control solution containing (in mM): 152 NaCl, 5 KCl, 1 MgCl2, 2 CaCl2, 10 glucose, and 10 HEPES; pH was adjusted to 7.4 with NaOH and osmolarity was adjusted to 320 mOsM with glucose. […] Responses to selective P2X3 receptor agonist α,β-methylene-ATP (α,β-meATP; resistant to ectoATPase hydrolysis, Sigma-Aldrich) were measured using an EPC-9 amplifier and HEKA Patch Master software (HEKA Electronik, Germany). Cells were voltage-clamped at −70 mV. In most cells, series resistance was compensated by 80%. To determine half effective concentration of agonist (EC50), dose-response curves for α,β-meATP were constructed by applying different agonist doses to the same cells and fitting them with a logistic equation (Origin 8.0, Microcal, Northampton, Mass.).
Agonists and antagonists were applied, usually for 2 sec, via a rapid superfusion system (Rapid Solution Changer RSC-200; BioLogic Science Instruments, Grenoble, France) placed 100 to 150 μm near the cell. The time for the solution exchange across the cell was approximately 30 ms, as judged with liquid junction potential measurements. All chemicals, including enzymes for cell culture, were from Sigma (St. Louis, Mo.). Culture media were obtained from Invitrogen (Milan, Italy).
The peak amplitudes of the responses were measured using HEKA Patch Master software. For each agonist, dose-response plots were constructed by normalizing data with respect to the maximum response. All data are presented as mean±S.E.M. (n=the number of cells) with statistical significance assessed by paired t-test (for parametric data) or Mann-Whitney rank sum test (for non-parametric data). Best fits of data with a sigmoid function were compared with respective control fits using Origin 8.0 software. A value of P<0.05 was accepted as indicative of statistically significant difference.
The inhibitory (suppressive) potencies of AppNHppA and AppCH2ppA via high affinity desensitization (HAD) were evaluated. The inventors applied both synthetic analogues in different experiments during rhythmic 2 s long (2 […]) activations of P2X3 receptors using 10 μM α,β-meATP (for protocol see FIG. 2 top).

[2] = Table 1, concentration, read-out: IC50 First phase (acute pain)
[3] = Table 1, concentration, read-out: IC50 Second phase (chronic pain)
[4] = co-injection (100 μL) with formalin into paw, read-out: IC50 in the first (acute) phase
[5] = co-injection (100 μL) with formalin into paw, read-out: IC50 in the second (tonic) phase

Nc1ncnc2c1ncn2[C@@H]1O[C@H](COP(=O)(O)OP(=O)(O)CP(=O)(O)OP(=O)(O)OC[C@H]2O[C@@H](n3cnc4c(N)ncnc43)C(O)C2O)C(O)C1O (stereo in doubt) [AppCH2ppA]
nociceptive behavior after control injection of compound alone (male Wistar rats): Lack of nociceptive behavior | IC50 (male Wistar rats; [2]): 32000 ± 2200 nM | IC50 (male Wistar rats; [3]): 510 ± 60 nM | IC50 (male Wistar rats; [4]): 31900 ± 22000 nM | IC50 (male Wistar rats; [5]): 500 ± 60 nM | IC50 First phase (acute pain), calculated (male Wistar rats): 80 ± 5.5 nmol/kg | IC50 Second phase (chronic pain), calculated (male Wistar rats): 1.28 + 0.06 nmol/kg | First phase (acute pain) (male Wistar rats): 80 ± 5.5 nmol/kg | First phase (acute pain) (μg/kg) (male Wistar rats): (67) μg/kg | Second phase (chronic pain) (male Wistar rats): 1.28 ± 0.06 nmol/kg | Second phase (chronic pain) (μg/kg) (male Wistar rats): (1.067) μg/kg | First phase (acute pain) Human (70 kg) nmol (male Wistar rats): 5600 nmol | Second phase (chronic pain) Human (70 kg) nmol (male Wistar rats): 89.6 nmol | First phase (acute pain) Rat (40 g) nmol (male Wistar rats): 3.2 nmol | Second phase (chronic pain) Rat (40 g) nmol (male Wistar rats): 0.0512 nmol | recalculated effective concentration (second phase) (male Wistar rats): 1.28±0.06 nmolkg | number of nocifensive events triggered by the injection of formalin (male Wistar rats): potently reduced | kH, first (acute) phase (male Wistar rats; co-injection with formalin): 0.82±0.09 | kH, second (tonic) phase (male Wistar rats; co-injection with formalin): 0.89±0.18 | times more effective reduction of nocifensive behavior in second (tonic) phase compared with first (acute) phase (male Wistar rats; rat, in vivo): 60 times | depression of P2X3 current ([1]; α,β-meATP pulses every 30 s (high rate)): 81±3% | depression of P2X3 current ([1]; α,β-meATP pulses every 2 min (low rate)): 61.3±5% | nH of the activation dose-response curve [1]: 2.27±0.56 | EC50 ([1]; agonist applied for 2 s, read-out: EC50 for activation of P2X3 mediated currents): 9300 ± 1700 nM | IC50 ([1]; test pulses of 10 μM α,β-meATP every 2 min, measured 6 min after drug application, read-out: IC50 for inhibition of P2X3 mediated currents): 550 ± 200 nM

Nc1ncnc2c1ncn2[C@@H]1O[C@H](COP(=O)(O)OP(=O)(O)NP(=O)(O)OP(=O)(O)OC[C@H]2O[C@@H](n3cnc4c(N)ncnc43)C(O)C2O)C(O)C1O (stereo in doubt) [AppNHppA]
nociceptive behavior after control injection of compound alone (male Wistar rats): Lack of nociceptive behavior | IC50 (male Wistar rats; [2]): > 100000 nM | IC50 (male Wistar rats; [3]): 250 ± 90 nM | IC50 (male Wistar rats; [4]): > 100000 nM | IC50 (male Wistar rats; [5]): 250 ± 60 nM | IC50 First phase (acute pain), calculated (male Wistar rats): >250 nmol/kg | IC50 Second phase (chronic pain), calculated (male Wistar rats): 0.63 ± 0.23 nmol/kg | First phase (acute pain) (male Wistar rats): >250 nmol/kg | First phase (acute pain) (μg/kg) (male Wistar rats): (209) μg/kg | Second phase (chronic pain) (male Wistar rats): 0.63 ± 0.23 nmol/kg | Second phase (chronic pain) (μg/kg) (male Wistar rats): (0.526) μg/kg | First phase (acute pain) Human (70 kg) nmol (male Wistar rats): 17500 nmol | Second phase (chronic pain) Human (70 kg) nmol (male Wistar rats): 44.1 nmol | First phase (acute pain) Rat (40 g) nmol (male Wistar rats): 10 nmol | Second phase (chronic pain) Rat (40 g) nmol (male Wistar rats): 0.0252 nmol | recalculated effective concentration (second phase) (male Wistar rats): 0.63±0.23 nmolkg | number of nocifensive events triggered by the injection of formalin (male Wistar rats): potently reduced | kH, second (tonic) phase (male Wistar rats; co-injection with formalin): 0.89±0.18 | EC50 [1]: 41600 ± 1300 nM | IC50 [1]: 200 ± 40 nM | amplitude of the following α,β-meATP response ([1]; 10 nM applied for 6 min): almost unchanged | inhibition (suppression) of test responses ([1]; 3 μM): strong (almost full) inhibition | induction of membrane currents ([1]; 0.1 or 1 μM): not to induce membrane currents | induction of membrane currents ([1]; 10 or 100 μM): small and slowly desensitizing currents | remaining activity at 0.1 µM ([1]; HEK293, read-out: test responses reduced to (% of control)): 38.2 ± 8.5% | nH of the activation dose-response curve [1]: 1.58±0.05 | current response as % of the response induced by 10 μM of α,β-meATP ([1]; saturating 1 mM concentration, same cell): 41.2±13%
